The values below come from patent US8252930B2, “Azaindole derivatives with a combination of partial nicotinic acetyl-choline receptor agonism and dopamine reuptake inhibition” (Solvay Pharmaceuticals B.V., priority 2006, dated 2012).

Where a name gives a salt, the structure may show the parent alone. Read-outs that look alike come from different tables or passages of the source.

For data set [1], the target named is T1, [^3H]-dopamine uptake in rat striatal synaptosomes (Rattus norvegicus, UniProt P23977).
T1 construct: a crude synaptosomal fraction (P2) was prepared by homogenization and centrifugation; from tissue; host or cells: rat striatum, crude synaptosomal fraction (P2)
The experiment in a line: In vitro [3H]-dopamine uptake in rat striatal synaptosomes. It is filed as biochemical.
Procedure: Subsequently, [^3H]-dopamine (2×10^−7 M final concentration) was added and incubation was continued for 10 min. [^3H]-dopamine uptake was stopped by filtration and the synaptosomes were washed four times with phosphate buffered saline. The amount of [^3H]-dopamine in the synaptosomes was determined by Betaplate liquid scintillation counting. […] Inhibition of DA uptake was performed in duplicate.

T1 sequence (P23977 whole entry): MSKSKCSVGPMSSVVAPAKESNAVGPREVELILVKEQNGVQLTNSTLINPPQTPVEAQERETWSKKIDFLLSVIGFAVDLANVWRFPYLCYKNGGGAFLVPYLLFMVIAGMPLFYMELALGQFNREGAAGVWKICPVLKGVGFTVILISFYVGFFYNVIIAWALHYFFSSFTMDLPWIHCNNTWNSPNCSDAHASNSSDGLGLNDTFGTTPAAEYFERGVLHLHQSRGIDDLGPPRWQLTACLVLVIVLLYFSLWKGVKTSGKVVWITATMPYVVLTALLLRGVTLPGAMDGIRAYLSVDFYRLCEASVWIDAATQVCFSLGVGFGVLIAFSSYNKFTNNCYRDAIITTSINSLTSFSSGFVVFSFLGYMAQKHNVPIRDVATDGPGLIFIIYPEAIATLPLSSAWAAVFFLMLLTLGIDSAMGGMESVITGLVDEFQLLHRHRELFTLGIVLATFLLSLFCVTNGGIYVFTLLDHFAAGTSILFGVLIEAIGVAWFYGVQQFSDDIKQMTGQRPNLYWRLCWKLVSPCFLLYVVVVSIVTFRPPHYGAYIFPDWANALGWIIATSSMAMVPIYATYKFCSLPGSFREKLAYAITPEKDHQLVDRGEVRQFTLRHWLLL

With `C1=C(c2cc3cccnc3[nH]2)CNCC1` (as salt: HCl) [Compound 25, 2-(1,2,5,6-tetrahydro-pyridin-3-yl)-1H-pyrrolo[2,3-b]pyridine], the melting point is > 275 °C (dec.).

In data set [1], `CN1CCC[C@H]1Cc1c[nH]c2ncccc12` (stereo in doubt) [Compound 99, (S)-3-(1-Methyl-pyrrolidin-2-ylmethyl)-1H-pyrrolo[2,3-b]pyridine] came in with an IC50 above 10 µM.

As for `Clc1ccnc2[nH]c(C3CCCNC3)cc12` (centres unmarked) (as salt: HCl), the melting point is > 250 °C (dec.).

On to `c1cnc2[nH]cc(C[C@@H]3CCCN3)c2c1` (stereo in doubt) [Compound 97, (S)-3-Pyrrolidin-2-ylmethyl-1H-pyrrolo[2,3-b]pyridine], for which the IC50 in data set [1] (read-out: Functional activity re-uptake [^3H]-Dopamine pIC50 (converted)) was above 10 µM.

With `c1cnc2[nH]c(C3CCCNC3)cc2c1` (centres unmarked), the melting point lay in the range of 144 to 145 °C.

Regarding `CN1CCC[C@H]1Cc1cc2cccnc2[nH]1`, the melting point was 130 to 131 °C.

`c1cnc2[nH]cc(C3CN4CCC3CC4)c2c1` (centres unmarked) [Compound 16, 3-(1H-Pyrrolo[2,3-b]pyridin-3-yl)-1-aza-bicyclo[2.2.2]octane] displayed a melting point of 185 °C.

Take `c1cnc2[nH]c(C3CN4CCC3CC4)cc2c1` (centres unmarked) [Compound 21, 3-(1H-Pyrrolo[2,3-b]pyridin-2-yl)-1-aza-bicyclo[2.2.2]octane]: the melting point came to 190 °C.

What is called melting point is the temperature of the solid-liquid transition.
